In turn, `COCCNc1ccc([N+](=O)[O-])cc1` [Example 1, N-(2-methoxyethyl)-4-nitro-phenylamine] registered a melting point of 85 to 87 °C.
Then `COCCNc1ccc([N+](=O)[O-])cc1C` [Example 2, N-(2-methoxyethyl)-2-methyl-4-nitrophenylamine], with 97 to 100 °C.

Source of the values: patent US6379400B1, “Dye compositions and methods of dyeing keratin fibers” (Wella Aktiengesellschaft, priority 1998, dated 2002).
